For one data set, the system named is serum free fatty acid. Nature of the data set: Serum levels of free fatty acid in rats after oral administration (Table I). It is filed as in vivo. Particulars: for Serum level of free fatty acid (FFA): oral, n=6, nicotinic acid 20 mg/kg, S-nicotinate 62.2 mg/kg (equimolar). The protocol: (§1) At the time specified in Table I, the rats were killed by pentobarbital (30 mg/kg, i.p.) anesthesia and blood was withdrawn by the carotid. The serum separated from the blood samples was assayed for free fatty acid (according to a variation of the Elphic method) and triglyceride (according to the enzyme method).

A further data set concerns serum triglyceride. Kind of data set: Serum levels of triglyceride in rats after oral administration (Table I). It is filed as in vivo. Conditions: for Serum level of triglyceride (TG): oral, n=6, nicotinic acid 20 mg/kg, S-nicotinate 62.2 mg/kg (equimolar). The protocol:
as §1

Another data set relates to serum cholesterol. Kind of data set: Serum cholesterol in alcoholic fatty liver rats (Table III). In kind it is in vivo, male Sprague-Dawly rats. Particulars: 0.1 mmole/kg/day for five days, n=6. The protocol: (§2) The effects of S-nicotinate were confirmed by an experiment in which alcoholic fatty liver rats were used according to the method described by A. Hosein et al., Biochemical Pharmacology, 24, page 1859, 1975.
(§3) In this experiment, male Sprague-Dawly rats, age 6 weeks, were treated as follows. The rats received 10 ml of 40% ethanol solution per kg of body weight for 3 days (at 10:00 AM on the day of sacrifice and at 4:00 PM on the other days) by gastric intubation. S-nicotinate was suspended in 0.5 (v/v)% Tween 80 aqueous solution and administered for five days (at 9:00 AM) including the day of sacrifice. After sacrificing the rats (at 1:00 PM), the total cholesterol was measured according to the Bennie Zak method (American Journal of Clinical Pathology, 27, page 583, 1957) and free fatty acid was measured by the method described by K. Itaya et al., Journal of Lipid Research, 6, page 16, 1965.

Another data set relates to serum free fatty acids. Nature of the data set: Serum free fatty acids in alcoholic fatty liver rats (Table III). Conditions: 0.1 mmole/kg/day for five days, n=6. In kind it is in vivo, male Sprague-Dawly rats. The protocol: as §2, §3
A short description of data set [1]: Acute toxicity in mice (Table IV). Particulars: mouse, in vivo. The protocol: The acute toxicity test was conducted as follows. STD ddY strain mice, weight male 17.2-20.5 g, female 17.5-19.7 g, were used. The mice were fed on forage and water freely and kept at constant environmental conditions (temperature 23±1° C., relative humidity 55±5%, and 12 hours light) before the test. Samples of S-nicotinate water solutions (0.3 ml/10 g of body weight) were administered to each group (n=10) of mice in order to achieve levels of 5 g/kg and 10 g/kg, respectively.

The conditions of data set [2]: rat, in vivo, po.
Source text: (§4) On the other hand, upon oral administration of each compound, i.e., nicotinic acid and S-nicotinate to groups of rats, the plasma nicotinic acid levels in the rats were studied. […] The other experimental conditions were the same as those described above.
The nature of the next data set: in vivo. Conditions: rat, po, 62.2 mg/kg.
Data set [3] can be described thus: Plasma nicotinic acid levels in rats after oral administration (Table II).
Source text: as §4
The conditions of data set [4]: cited from earlier work.
Where [5] appears, read: 30 min, * = significant difference from control.
[6] abbreviates: rats, compared with nicotinic acid.

Like-named read-outs stand apart in the source and are kept apart here. Where only a bound is given, the exact number is not on record here.

We go through 3 compounds from patent US4288441A, “Nicotinoyl pantetheine derivatives” (priority 1980, dated 1981).

A word on the LD50: it is the dose expected to kill half of the subjects tested. Low readings indicate greater toxicity, high ones lower toxicity. The Cmax is the peak of the concentration-time curve. As usually defined, the Tmax is the time from dosing to the highest level.

Source text for in vivo: as §4

Take `CC(C)(CO)C(O)C(=O)NCCC(=O)NCCSC(=O)c1cccnc1` (stereo not shown) [S-nicotinate, 2,4-dihydroxy-N-[2-((2-mercaptoethyl)carbamoyl)ethyl]-3,3-dimethylbutyramide S-nicotinate]: the “Serum level of free fatty acid (FFA)” value with serum free fatty acid (setting [5]) worked out at 0.13±0.01 mEq/1; in the data set with serum free fatty acid (60 min), 0.13±0.01 mEq/1; in the data set with serum free fatty acid (90 min), 0.15±0.03 mEq/l; with serum free fatty acid (120 min), 0.20±0.04 mEq/l; with serum free fatty acid (360 min) it was 0.46±0.05 mEq/l. In addition, the “Effect on serum level of free fatty acid, in words” value with serum free fatty acid (setting [6]) is “decreases serum levels of free fatty acid and triglyceride in rats as well as nicotinic acid does”. The “Serum level of triglyceride (TG)” value in the data set on serum triglyceride (setting [5]) was 43.7 ± 5.7 mg/dL; in the data set with serum triglyceride (60 min), 22.2 ± 1.1 mg/dL; with serum triglyceride (90 min), 25.5 ± 3.3 mg/dL; in the data set on serum triglyceride (120 min), 29.2 ± 1.6 mg/dL; in the data set on serum triglyceride (360 min), 33.5 ± 8.0 mg/dL. For the same compound, the “Effect on serum level of triglyceride, in words” value in the data set on serum triglyceride (setting [6]) is “decreases serum levels of free fatty acid and triglyceride in rats as well as nicotinic acid does”. The Serum cholesterol in the data set with serum cholesterol came out at 79.0 ± 4.23 mg/dL. Also, the “Serum free fatty acids” value in the data set with serum free fatty acids stood at 236±21.33 μEq/l. The LD50 in data set [1] (iv) was 1600 mg/kg; in [1] (po) it was more than 10000 mg/kg. The “Plasma nicotinic acid at 120 minutes, in words” value in data set [2] is listed as “essentially disappeared”. This compound also returned a concentration at 0.5 h in “in vivo” of 5200 ± 300 ng/mL. The concentration at 1 h in “in vivo” was 3300 ± 300 ng/mL. Moreover, the concentration at 1.5 h in the data set “in vivo” amounted to 700 ± 400 ng/mL. Moreover, the “Activity in maintaining a satisfactory level of free nicotinic acid in the blood, in words” value in data set [3] (S-nicotinate itself vs nicotinic acid, inferred from experimental results) is reported as “has the same activity as nicotinic acid itself”.

With `O=C(O)c1cccnc1` [nicotinic acid], the “Serum level of free fatty acid (FFA)” value is given as 0.19±0.09 mEq/1 in the data set on serum free fatty acid (setting [5]); 0.12±0.01 mEq/1 with serum free fatty acid (60 min); 0.13±0.02 mEq/l in the data set with serum free fatty acid (90 min); 0.23±0.07 mEq/l in the data set with serum free fatty acid (120 min); 0.49±0.04 mEq/l in the data set with serum free fatty acid (360 min). In addition, the “Serum level of triglyceride (TG)” value in the data set with serum triglyceride (setting [5]) came to 35.0 ± 2.3 mg/dL; with serum triglyceride (60 min), 18.0 ± 0.7 mg/dL; in the data set with serum triglyceride (90 min), 21.2 ± 2.5 mg/dL; in the data set on serum triglyceride (120 min), 26.2 ± 1.1 mg/dL; with serum triglyceride (360 min), 32.5 ± 3.1 mg/dL. In addition, in data set [4] (cholesterol, triglycerides, phospholipids and free fatty acids in blood, well known), the “Effect on blood lipids” value was “reduces the levels of lipids such as cholesterol, triglycerides, phospholipids and free fatty acids in blood”. Further, the “Side-effects at higher doses” value in data set [4] (clinical treatment, higher doses) is “flushing of the face, itching and gastrointestinal impediments”. In data set [4] (clinical treatment, normal dosage levels), the “Nicotinic acid level in the blood, in words” value was “rapidly decreases”. The Vasodilator effect result in data set [4] (well known) is “vasodilator effect”. Also, in data set [3] (10 mg/kg nicotinic acid, at 60 minutes), the “Plasma nicotinic acid level, in words” value is listed as “almost a trace amount or was not detectable”. Moreover, the “Plasma nicotinic acid level” value in data set [3] (360 min, oral, nicotinic acid 20 mg/kg, S-nicotinate 62.2 mg/kg) turned out to be 0 ± 0 µg/mL. In data set [3] (rat, plasma, po, 10 mg/kg), this compound yielded a Cmax at 0.5 h of 8300 ng/mL. The Tmax in data set [3] (rat, plasma, po, 10 mg/kg) was 30 min. In data set [3] (rat, plasma, po, 20 mg/kg), this compound returned a concentration at 0.5 h of 42800 ± 1200 ng/mL. This compound also had a concentration at 1 h in data set [3] (rat, plasma, po, 20 mg/kg) of 22200 ± 1600 ng/mL. For the same compound, in data set [3] (rat, plasma, po, 20 mg/kg), the concentration at 1.5 h amounted to 6700 ± 1600 ng/mL. Further, the concentration at 2 h in [3] (rat, plasma, po, 20 mg/kg) stood at 400 ± 300 ng/mL. The “Plasma nicotinic acid at 120 minutes, in words” value in data set [3] (rats, 120 min after oral administration) is “essentially disappeared”. Besides, in data set [3] (rats, compared with S-nicotinate), the “Rebound effect in the plasma nicotinic acid level” value is “far larger rebound effect”.

On to pantothenolnicotinate, for which, in [4] (Japanese published patent specification No. 40-18109), the “Effect on blood cholesterol level” value is given as “able to decrease the blood cholesterol level”.
